Laboratory results taken from patent US20150307520A1, “NOVEL HETEROARYL AND HETEROCYCLE COMPOUNDS, COMPOSITIONS AND METHODS THEREOF” (HUTCHISON MEDIPHARMA LIMITED, priority 2012, published 2015).

Experiments:
Type in all cases: biochemical
[1] = molecular target: p110β/p85α (Homo sapiens, UniProt P42338); test: Transcreener KINASE Assay, kinase inhibition of p110β/p85α; details: for PI3Kβ IH % @ 1 uM: 1 uM test compound; for IC50: read-out: PI3Kβ IC50
In short: (§1)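 Steps: compound (2% DMSO final) plus enzyme in HEPES/NaCl/EGTA/CHAPS/3 mM MgCl2/1 mM DTT buffer; start with PIP2/ATP addition (30 uM/10 uM solution); 80 min RT; add ADP detection mix, 60 min RT; read fluorescence polarization.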

[2] = molecular target: p110γ (Homo sapiens, UniProt P48736); test: Transcreener KINASE Assay, kinase inhibition of p110γ; details: for PI3Kγ IH % @ 1 uM: 1 uM test compound; for IC50: read-out: PI3Kγ IC50
In short: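 Steps: enzyme reaction with compound, 80 min at room temperature; add ADP detection reagent, incubate 60 min at room temperature; read fluorescence polarization. Inhibition and IC50 values are derived from the ADP signal.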

[3] = molecular target: p110δ/p85α (Homo sapiens, UniProt O00329); test: Transcreener KINASE Assay, kinase inhibition of p110δ/p85α; details: for PI3Kδ IH % @ 1 uM: 1 uM test compound; for IC50: read-out: PI3Kδ IC50
In short: as §1

Sequence of p110δ/p85α (O00329 whole entry): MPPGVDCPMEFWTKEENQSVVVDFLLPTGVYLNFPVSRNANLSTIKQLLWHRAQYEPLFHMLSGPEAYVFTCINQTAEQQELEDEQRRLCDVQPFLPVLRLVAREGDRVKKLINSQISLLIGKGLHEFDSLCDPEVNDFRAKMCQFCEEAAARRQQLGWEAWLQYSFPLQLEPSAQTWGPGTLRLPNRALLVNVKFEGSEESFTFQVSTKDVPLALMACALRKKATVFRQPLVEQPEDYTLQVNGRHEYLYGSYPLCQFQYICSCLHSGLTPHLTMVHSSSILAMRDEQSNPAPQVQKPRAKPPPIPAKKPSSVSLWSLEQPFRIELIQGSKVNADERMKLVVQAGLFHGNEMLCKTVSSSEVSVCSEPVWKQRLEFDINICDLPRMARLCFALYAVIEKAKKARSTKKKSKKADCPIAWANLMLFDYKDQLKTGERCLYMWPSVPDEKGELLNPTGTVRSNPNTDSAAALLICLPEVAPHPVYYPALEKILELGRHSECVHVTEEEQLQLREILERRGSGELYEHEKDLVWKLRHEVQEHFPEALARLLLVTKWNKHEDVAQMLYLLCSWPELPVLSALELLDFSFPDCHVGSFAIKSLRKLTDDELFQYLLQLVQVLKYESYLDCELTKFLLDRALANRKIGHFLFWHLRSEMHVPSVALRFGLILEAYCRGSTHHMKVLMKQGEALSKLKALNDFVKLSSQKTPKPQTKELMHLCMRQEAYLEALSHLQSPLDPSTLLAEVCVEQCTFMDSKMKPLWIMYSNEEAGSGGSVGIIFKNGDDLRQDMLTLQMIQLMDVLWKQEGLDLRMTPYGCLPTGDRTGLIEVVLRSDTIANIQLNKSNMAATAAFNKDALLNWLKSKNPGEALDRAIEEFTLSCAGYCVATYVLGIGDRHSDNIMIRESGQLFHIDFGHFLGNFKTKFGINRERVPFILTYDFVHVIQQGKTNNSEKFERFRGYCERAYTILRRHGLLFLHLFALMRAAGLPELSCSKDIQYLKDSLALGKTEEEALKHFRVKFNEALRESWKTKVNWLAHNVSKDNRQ
Sequence of p110δ/p85α (P27986 whole entry partner): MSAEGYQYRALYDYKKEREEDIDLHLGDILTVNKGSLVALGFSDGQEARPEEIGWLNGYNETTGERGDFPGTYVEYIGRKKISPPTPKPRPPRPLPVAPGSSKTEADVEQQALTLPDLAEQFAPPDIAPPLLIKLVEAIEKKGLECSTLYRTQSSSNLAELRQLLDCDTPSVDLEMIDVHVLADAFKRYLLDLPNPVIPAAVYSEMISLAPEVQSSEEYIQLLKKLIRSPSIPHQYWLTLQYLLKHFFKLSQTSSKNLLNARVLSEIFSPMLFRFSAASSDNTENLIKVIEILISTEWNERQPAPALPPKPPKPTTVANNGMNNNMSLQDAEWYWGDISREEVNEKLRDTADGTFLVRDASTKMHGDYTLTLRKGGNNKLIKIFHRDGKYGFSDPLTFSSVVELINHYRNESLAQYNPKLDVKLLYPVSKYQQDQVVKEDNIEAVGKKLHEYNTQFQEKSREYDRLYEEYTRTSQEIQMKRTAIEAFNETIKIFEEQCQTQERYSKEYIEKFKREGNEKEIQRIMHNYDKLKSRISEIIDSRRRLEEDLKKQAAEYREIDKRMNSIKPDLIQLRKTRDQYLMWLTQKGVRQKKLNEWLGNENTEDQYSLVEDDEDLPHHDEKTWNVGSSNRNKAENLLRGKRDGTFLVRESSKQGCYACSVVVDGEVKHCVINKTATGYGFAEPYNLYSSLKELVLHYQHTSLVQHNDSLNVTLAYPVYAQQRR
Sequence of p110γ (P48736 whole entry): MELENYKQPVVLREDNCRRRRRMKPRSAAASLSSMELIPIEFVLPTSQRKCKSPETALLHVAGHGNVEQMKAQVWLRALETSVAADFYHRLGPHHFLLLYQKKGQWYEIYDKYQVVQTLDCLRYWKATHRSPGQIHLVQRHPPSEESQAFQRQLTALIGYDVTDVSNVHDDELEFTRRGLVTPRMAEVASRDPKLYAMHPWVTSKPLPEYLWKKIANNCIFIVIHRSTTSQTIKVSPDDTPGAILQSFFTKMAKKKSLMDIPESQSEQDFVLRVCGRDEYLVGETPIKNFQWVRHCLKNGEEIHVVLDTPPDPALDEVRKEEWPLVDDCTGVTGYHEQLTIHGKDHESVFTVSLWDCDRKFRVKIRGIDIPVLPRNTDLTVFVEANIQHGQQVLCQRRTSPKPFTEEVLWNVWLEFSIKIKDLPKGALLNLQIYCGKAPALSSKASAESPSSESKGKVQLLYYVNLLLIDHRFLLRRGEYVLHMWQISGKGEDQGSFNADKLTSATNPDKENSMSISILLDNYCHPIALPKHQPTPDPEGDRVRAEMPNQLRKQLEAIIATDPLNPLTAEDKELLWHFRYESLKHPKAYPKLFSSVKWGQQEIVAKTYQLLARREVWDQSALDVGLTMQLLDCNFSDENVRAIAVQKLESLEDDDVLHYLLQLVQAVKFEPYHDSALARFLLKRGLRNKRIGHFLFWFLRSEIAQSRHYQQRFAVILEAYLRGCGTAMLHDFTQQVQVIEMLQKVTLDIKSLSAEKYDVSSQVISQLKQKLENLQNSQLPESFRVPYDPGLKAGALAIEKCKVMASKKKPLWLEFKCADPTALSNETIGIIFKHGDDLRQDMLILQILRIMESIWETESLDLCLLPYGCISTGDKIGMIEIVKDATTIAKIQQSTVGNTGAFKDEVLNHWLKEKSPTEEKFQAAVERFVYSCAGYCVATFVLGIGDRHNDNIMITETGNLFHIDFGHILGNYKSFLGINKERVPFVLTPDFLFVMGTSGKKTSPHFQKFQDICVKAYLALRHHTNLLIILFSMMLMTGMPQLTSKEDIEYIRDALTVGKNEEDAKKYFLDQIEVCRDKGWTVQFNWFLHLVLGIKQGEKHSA
Sequence of p110β/p85α (P42338 whole entry): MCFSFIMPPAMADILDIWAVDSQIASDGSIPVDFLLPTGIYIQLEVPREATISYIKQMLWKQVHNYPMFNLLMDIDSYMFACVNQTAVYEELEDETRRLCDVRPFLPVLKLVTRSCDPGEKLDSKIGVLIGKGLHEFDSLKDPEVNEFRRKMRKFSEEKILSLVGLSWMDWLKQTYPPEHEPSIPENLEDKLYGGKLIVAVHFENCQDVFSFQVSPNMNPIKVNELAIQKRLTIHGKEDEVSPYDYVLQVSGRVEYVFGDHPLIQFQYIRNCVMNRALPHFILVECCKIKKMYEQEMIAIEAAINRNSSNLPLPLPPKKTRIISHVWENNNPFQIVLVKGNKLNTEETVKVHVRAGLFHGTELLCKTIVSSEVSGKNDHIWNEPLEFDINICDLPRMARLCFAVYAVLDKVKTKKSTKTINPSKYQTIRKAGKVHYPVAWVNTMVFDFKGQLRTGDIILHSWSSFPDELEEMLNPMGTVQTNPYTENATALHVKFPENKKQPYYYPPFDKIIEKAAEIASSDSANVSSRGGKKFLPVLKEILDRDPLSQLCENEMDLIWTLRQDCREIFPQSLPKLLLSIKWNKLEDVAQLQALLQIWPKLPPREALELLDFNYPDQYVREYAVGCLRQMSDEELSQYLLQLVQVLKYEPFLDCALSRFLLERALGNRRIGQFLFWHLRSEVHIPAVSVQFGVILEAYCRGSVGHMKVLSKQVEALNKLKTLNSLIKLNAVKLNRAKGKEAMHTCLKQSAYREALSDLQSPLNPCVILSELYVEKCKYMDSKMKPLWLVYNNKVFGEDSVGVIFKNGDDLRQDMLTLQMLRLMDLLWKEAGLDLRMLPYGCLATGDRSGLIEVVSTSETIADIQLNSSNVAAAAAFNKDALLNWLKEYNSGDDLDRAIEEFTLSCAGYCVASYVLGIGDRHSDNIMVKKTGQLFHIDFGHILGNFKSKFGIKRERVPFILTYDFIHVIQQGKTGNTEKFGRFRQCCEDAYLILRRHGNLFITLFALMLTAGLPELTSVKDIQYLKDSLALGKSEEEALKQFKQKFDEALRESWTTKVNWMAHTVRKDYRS
Sequence of p110β/p85α (P27986 2-724 partner): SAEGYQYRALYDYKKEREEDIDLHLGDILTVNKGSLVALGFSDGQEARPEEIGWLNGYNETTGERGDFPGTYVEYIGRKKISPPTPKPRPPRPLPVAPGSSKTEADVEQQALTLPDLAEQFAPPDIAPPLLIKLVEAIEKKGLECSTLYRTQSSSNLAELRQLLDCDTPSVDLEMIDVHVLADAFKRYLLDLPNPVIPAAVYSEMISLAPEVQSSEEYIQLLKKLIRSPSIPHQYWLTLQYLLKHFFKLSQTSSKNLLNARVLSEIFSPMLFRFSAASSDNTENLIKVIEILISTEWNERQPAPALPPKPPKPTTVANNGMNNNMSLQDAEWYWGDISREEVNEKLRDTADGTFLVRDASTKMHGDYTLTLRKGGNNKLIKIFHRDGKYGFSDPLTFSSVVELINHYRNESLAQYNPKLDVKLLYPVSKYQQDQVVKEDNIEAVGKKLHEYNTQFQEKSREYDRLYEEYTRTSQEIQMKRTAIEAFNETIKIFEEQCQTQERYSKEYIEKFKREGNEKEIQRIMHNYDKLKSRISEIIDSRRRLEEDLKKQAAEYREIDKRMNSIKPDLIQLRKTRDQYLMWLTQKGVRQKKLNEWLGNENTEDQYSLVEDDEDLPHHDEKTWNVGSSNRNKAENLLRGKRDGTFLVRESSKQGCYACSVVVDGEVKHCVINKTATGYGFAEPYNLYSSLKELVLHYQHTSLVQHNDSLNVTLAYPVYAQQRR

| SMILES | PI3Kβ IH % @ 1 uM [1] [%] | IC50 [1] [µM] | PI3Kγ IH % @ 1 uM [2] [%] | IC50 [2] [µM] | PI3Kδ IH % @ 1 uM [3] [%] | IC50 [3] [µM] |
| --- | --- | --- | --- | --- | --- | --- |
| CC(Nc1nc(N)ncc1C#N)c1cn2ccc(Cl)c2c(=O)n1-c1ccccc1 (centres unmarked) [Compound 271] | 94.2 | 0.015 | 97.6 | 0.002 | >100 | 0.001 |
| CC(=O)c1c[nH]c2ncnc(NC(C)c3cn4ccc(Cl)c4c(=O)n3-c3ccccc3)c12 (centres unmarked) [Compound 272] | 76.9 | 0.239 | >100 | 0.021 | 98.8 | 0.007 |
| CC(=O)c1cnc(N)nc1NC(C)c1cn2ccc(Cl)c2c(=O)n1-c1ccccc1 (centres unmarked) [Compound 273] | 98.8 | 0.012 | 98.3 | 0.005 | >100 | 0.003 |
| CC(=O)c1c(N)ncnc1NC(C)c1cn2ccc(Cl)c2c(=O)n1-c1ccccc1 (centres unmarked) [Compound 274] | 61.6 | – | 86.8 | 0.101 | 97.8 | 0.003 |
| CC(Nc1nc(N)nc2c1C(=O)CCN2)c1cn2ccc(Cl)c2c(=O)n1-c1ccccc1 (centres unmarked) [Compound 275] | 97.5 | 0.012 | 97.8 | 0.001 | >100 | 0.0004 |
| CC(=O)c1c[nH]c2ncnc(NC(C)c3cn4ccc(Cl)c4c(=O)n3-c3cccc(F)c3)c12 (centres unmarked) [Compound 276] | 52.9 | – | 95.7 | 0.006 | 99.1 | 0.001 |
| CC(Nc1ncnc2[nH]cc(C#N)c12)c1cn2ccc(Cl)c2c(=O)n1-c1cccc(F)c1 (centres unmarked) [Compound 277] | 81.4 | 0.247 | 97.0 | 0.011 | 99.5 | 0.001 |
| COCC#Cc1c[nH]c2ncnc(N3CC[C@H]3c3nn4ccc(Cl)c4c(=O)n3-c3ccccc3)c12 [Compound 279] | 43.0 | – | 92.0 | 0.042 | >100 | 0.005 |
| Cn1cc(-c2cnc(N)nc2N2CC[C@H]2c2nn3ccc(Cl)c3c(=O)n2-c2ccccc2)cn1 [Compound 280] | −2.0 | – | 87.2 | 0.256 | 47.0 | – |
| CN(C)C(=O)c1cnc(N)nc1N1CC[C@H]1c1nn2ccc(Cl)c2c(=O)n1-c1ccccc1 [Compound 281] | 11.1 | – | 62.2 | – | 15.7 | – |
| Nc1ncc([N+](=O)[O-])c(N2CC[C@H]2c2nn3ccc(Cl)c3c(=O)n2-c2ccccc2)n1 [Compound 282] | 19.9 | – | 93.5 | – | 94.9 | – |
| Cc1nc(N)nc(N2CC[C@H]2c2nn3ccc(Cl)c3c(=O)n2-c2ccccc2)c1C#N [Compound 283] | 78.0 | 0.137 | >100 | 0.001 | >100 | 0.002 |
| COc1cnc(N)nc1N1CC[C@H]1c1nn2ccc(Cl)c2c(=O)n1-c1ccccc1 [Compound 284] | 9.7 | – | 51.2 | – | 51.2 | – |
| CC(Nc1ncnc2[nH]cc(F)c12)c1cc2ncc(Cl)n2c(=O)n1-c1ccccc1 (centres unmarked) [Compound 285] | 79.0 | 0.257 | >100 | 0.037 | >100 | 0.004 |
| CC(Nc1ncnc2[nH]cc(S(C)(=O)=O)c12)c1cc2ncc(Cl)n2c(=O)n1-c1ccccc1 (centres unmarked) [Compound 286] | 25.2 | – | 56.2 | – | 88.8 | 0.029 |
| CC(=O)c1c[nH]c2ncnc(NC(C)c3cc4ncc(Cl)n4c(=O)n3-c3ccccc3)c12 (centres unmarked) [Compound 287] | 73.9 | 0.463 | 96.9 | 0.068 | >100 | 0.005 |

| SMILES | PI3Kβ IH % @ 1 uM [1] [%] | IC50 [1] [µM] | PI3Kγ IH % @ 1 uM [2] [%] | IC50 [2] [µM] | PI3Kδ IH % @ 1 uM [3] [%] | IC50 [3] [µM] |
| --- | --- | --- | --- | --- | --- | --- |
| CC(=O)c1cnc(N)nc1NC(C)c1cc2ncc(Cl)n2c(=O)n1-c1ccccc1 (centres unmarked) [Compound 288] | 94.5 | 0.093 | 95.8 | 0.021 | 99.7 | 0.004 |
| CC(Nc1nc(N)nc2c1C(=O)CCN2)c1cc2ncc(Cl)n2c(=O)n1-c1ccccc1 (centres unmarked) [Compound 290] | – | 0.039 | – | 0.004 | – | 0.001 |
| C=Cc1ccn2nc([C@@H]3CCN3c3ncnc4[nH]cc(C#N)c34)n(-c3ccccc3)c(=O)c12 [Compound 291] | 12.6 | – | 91.1 | 0.143 | 80.4 | – |
| C=Cc1ccn2nc([C@@H]3CCCN3c3ncnc4[nH]cc(C#N)c34)n(-c3ccccc3)c(=O)c12 [Compound 292] | 45.1 | – | 94.7 | 0.112 | >100 | 0.007 |
| O=c1c2c(Cl)ccn2nc([C@@H]2C[S+]([O-])CN2c2ncnc3[nH]cnc23)n1-c1ccccc1 (stereo partly drawn) [Compound 293, 5-chloro-2-((4R)-1-oxido-3-(9H-purin-6-yl)thiazolidin-4-yl)-3-phenylpyrrolo[2,1-f][1,2,4]triazin-4(3H)-one] | 54.2 | – | 94.7 | 0.103 | 98.9 | 0.014 |
| O=c1c2c(Cl)ccn2nc([C@@H]2CSCN2c2ncnc3[nH]cnc23)n1-c1ccccc1 [Compound 294, (R)-2-(3-(9H-purin-6-yl)thiazolidin-4-yl)-5-chloro-3-phenylpyrrolo[2,1-f][1,2,4]triazin-4(3H)-one] | 70.6 | 0.475 | >100 | 0.026 | 99.3 | 0.003 |
| CC(=O)c1c[nH]c2ncnc(N3CC[C@H]3c3nn4ccc(Cl)c4c(=O)n3-c3ccc(F)cc3)c12 [Compound 296, (S)-2-(1-(5-acetyl-7H-pyrrolo[2,3-d]pyrimidin-4-yl)azetidin-2-yl)-5-chloro-3-(4-fluorophenyl)pyrrolo[2,1-f][1,2,4]triazin-4(3H)-one] | 6.8 | – | 85.5 | 0.036 | 77.0 | 0.381 |
| CC(=O)c1n[nH]c2ncnc(N3CCC[C@H]3c3nn4ccc(Cl)c4c(=O)n3-c3ccccc3)c12 [Compound 297] | 61.5 | – | 92.7 | 0.015 | 96.0 | 0.006 |
| CC(=O)c1n[nH]c2ncnc(N3CC[C@H]3c3nn4ccc(Cl)c4c(=O)n3-c3ccccc3)c12 [Compound 298] | 17.8 | – | 70.2 | 0.158 | 61.9 | – |
| CC(=O)c1c(N)ncnc1N1CC[C@H]1c1nn2ccc(Cl)c2c(=O)n1-c1ccccc1 [Compound 300] | 51.5 | – | 82.7 | 0.148 | 99.1 | 0.029 |
| CC(=O)c1cnc(N)nc1N1CC[C@H]1c1nn2ccc(Cl)c2c(=O)n1-c1ccc(F)cc1 [Compound 302] | 57.8 | – | 98.6 | 0.008 | 96.5 | 0.077 |
| O=c1c2c(Cl)ccn2nc([C@@H]2CCCN2c2ncnc3[nH]cc(C4=NCCO4)c23)n1-c1ccccc1 [Compound 303, (S)-5-chloro-2-(1-(5-(4,5-dihydrooxazol-2-yl)-7H-pyrrolo[2,3-d]pyrimidin-4-yl)pyrrolidin-2-yl)-3-phenylpyrrolo[2,1-f][1,2,4]triazin-4(3H)-one] | 92.7 | 0.021 | 94.6 | 0.001 | 97.2 | 0.001 |
| O=C(NCCO)c1c[nH]c2ncnc(N3CC[C@H]3c3nn4ccc(Cl)c4c(=O)n3-c3ccccc3)c12 [Compound 304] | 47.4 | – | 93.6 | – | 98.2 | 0.042 |
| O=c1c2c(Cl)ccn2nc([C@@H]2CCN2c2ncnc3[nH]cc(C4=NCCO4)c23)n1-c1ccccc1 [Compound 305] | 91.6 | 0.125 | 97.6 | 0.007 | >100 | 0.021 |
| C/C(=N\O)c1c[nH]c2ncnc(N3CCC[C@H]3c3nn4ccc(Cl)c4c(=O)n3-c3ccccc3)c12 [Compound 306, (S)-5-chloro-2-(1-(5-(1-(hydroxyimino)ethyl)-7H-pyrrolo[2,3-d]pyrimidin-4-yl)pyrrolidin-2-yl)-3-phenylpyrrolo[2,1-f][1,2,4]triazin-4(3H)-one] | 92.8 | 0.016 | >100 | 0.029 | >100 | 0.011 |
| CC(=O)Nc1c[nH]c2ncnc(N3CCC[C@H]3c3nn4ccc(Cl)c4c(=O)n3-c3ccccc3)c12 [Compound 307, (S)—N-(4-(2-(5-chloro-4-oxo-3-phenyl-3,4-dihydropyrrolo[2,1-f][1,2,4]triazin-2-yl)pyrrolidin-1-yl)-7H-pyrrolo[2,3-d]pyrimidin-5-yl)acetamide] | 80.7 | 0.213 | 95.9 | 0.032 | 98.9 | 0.005 |
